According to patent US10123993B2, “Cyclic ureas as inhibitors of rock” (BRISTOL-MYERS SQUIBB COMPANY, priority 2015, dated 2018):
Counter-ions that a name gives are not always drawn.

Target: ROCK2 (Homo sapiens, UniProt O75116)
Assay: ROCK2 kinase inhibition assay (Caliper LABCHIP, FITC peptide substrate)
Type: biochemical
Details: 5 μM ATP, 1.5 μM peptide substrate; value ranges
In short: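 Rho kinase with 5 μM ATP and 1.5 μM FITC-AHA-AKRRRLSSLRA-OH peptide in HEPES pH 7.5, 20 mM MgCl2, 0.015% Brij-35, 4 mM DTT, DMSO <2%. EDTA stop; phospho and non-phospho peptide separated on LabChip. IC50 from dose-response fit.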

Sequence of ROCK2 (O75116 whole entry, species assumed): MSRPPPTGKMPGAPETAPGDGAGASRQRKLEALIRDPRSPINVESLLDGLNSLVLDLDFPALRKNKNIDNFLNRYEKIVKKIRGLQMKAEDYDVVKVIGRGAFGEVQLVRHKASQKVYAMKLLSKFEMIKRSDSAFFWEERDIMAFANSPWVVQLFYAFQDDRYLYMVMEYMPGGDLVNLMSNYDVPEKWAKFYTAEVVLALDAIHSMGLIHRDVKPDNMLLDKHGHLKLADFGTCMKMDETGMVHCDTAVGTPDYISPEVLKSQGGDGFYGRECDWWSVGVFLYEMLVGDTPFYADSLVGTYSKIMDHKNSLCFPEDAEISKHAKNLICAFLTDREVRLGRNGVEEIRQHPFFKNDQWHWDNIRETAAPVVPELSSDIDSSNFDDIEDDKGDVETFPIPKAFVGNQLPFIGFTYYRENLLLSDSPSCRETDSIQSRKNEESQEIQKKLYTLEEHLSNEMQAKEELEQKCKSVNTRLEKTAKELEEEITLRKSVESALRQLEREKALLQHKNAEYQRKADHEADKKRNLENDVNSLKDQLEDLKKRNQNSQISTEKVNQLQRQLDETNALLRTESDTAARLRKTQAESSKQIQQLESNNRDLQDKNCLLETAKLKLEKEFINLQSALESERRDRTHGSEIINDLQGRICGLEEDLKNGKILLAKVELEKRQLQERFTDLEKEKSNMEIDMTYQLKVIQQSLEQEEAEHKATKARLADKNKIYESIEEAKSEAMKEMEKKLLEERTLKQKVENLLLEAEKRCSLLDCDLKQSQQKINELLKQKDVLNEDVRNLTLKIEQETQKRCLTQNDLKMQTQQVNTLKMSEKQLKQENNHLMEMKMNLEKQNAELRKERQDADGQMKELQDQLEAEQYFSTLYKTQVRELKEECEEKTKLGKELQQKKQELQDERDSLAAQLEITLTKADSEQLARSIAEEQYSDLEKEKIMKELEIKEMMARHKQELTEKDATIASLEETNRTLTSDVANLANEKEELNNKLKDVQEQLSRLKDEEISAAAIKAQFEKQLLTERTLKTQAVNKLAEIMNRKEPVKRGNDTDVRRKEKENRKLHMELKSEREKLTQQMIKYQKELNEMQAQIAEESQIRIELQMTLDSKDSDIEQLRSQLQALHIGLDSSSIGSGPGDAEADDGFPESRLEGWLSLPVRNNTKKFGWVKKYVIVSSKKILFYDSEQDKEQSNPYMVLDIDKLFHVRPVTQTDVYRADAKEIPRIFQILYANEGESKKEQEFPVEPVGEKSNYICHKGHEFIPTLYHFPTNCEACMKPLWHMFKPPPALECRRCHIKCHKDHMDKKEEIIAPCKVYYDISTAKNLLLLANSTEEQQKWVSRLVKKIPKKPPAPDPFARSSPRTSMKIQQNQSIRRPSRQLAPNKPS

IC50 [nM]	Structure (SMILES)
2.1 to 20	COc1cc(CN2CCN(c3ccc(-c4cn[nH]c4)cc3)C2=O)ccc1F [Example 263, 1-(4-(1H-pyrazol-4-yl)phenyl)-3-(4-fluoro-3-methoxybenzyl)imidazolidin-2-one]
2.1 to 20	COc1nc(N2CCN(Cc3ccc(F)c(OCC4CC4)c3)C2=O)ccc1-c1cn[nH]c1 [Example 218, 1-(3-(cyclopropylmethoxy)-4-fluorobenzyl)-3-(6-methoxy-5-(1H-pyrazol-4-yl)pyridin-2-yl)imidazolidin-2-one]
20.1 to 200	COc1ccc(CN2CCN(c3ccc(-c4cn[nH]c4)c(F)c3)C2=O)cc1F [Example 432, 1-(3-fluoro-4-(1H-pyrazol-4-yl)phenyl)-3-(3-fluoro-4-methoxybenzyl)imidazolidin-2-one]
< 2	COc1ccc(F)c(CN2CCN(c3ccc(-c4cn[nH]c4)c(OC)n3)C2=O)c1 [Example 221, 1-(2-fluoro-5-methoxybenzyl)-3-(6-methoxy-5-(1H-pyrazol-4-yl)pyridin-2-yl)imidazolidin-2-one]
20.1 to 200	COc1cccc(CN2CCN(c3ccc(-c4cn[nH]c4)c(C4CC4)c3)C2=O)c1 [Example 468, 1-(3-cyclopropyl-4-(1H-pyrazol-4-yl)phenyl)-3-(3-methoxybenzyl)imidazolidin-2-one]
20.1 to 200	CC(c1ccccc1)N1CC(=O)N(c2ccc(-c3cn[nH]c3)cc2)C1=O (stereo not drawn) [Example 95, 3-(4-(1H-pyrazol-4-yl)phenyl)-1-(1-phenylethyl)imidazolidine-2,4-dione]
20.1 to 200	COc1cc(Cn2ccn(-c3ccc(-c4cn[nH]c4)cn3)c2=O)ccc1F [Example 346, 1-(5-(1H-pyrazol-4-yl)pyridin-2-yl)-3-(4-fluoro-3-methoxybenzyl)-1H-imidazol-2(3H)-one]
< 2	COc1cc(F)cc(C(C)N2CCN(c3ccc(-c4cn[nH]c4)c(C)n3)C2=O)c1 (single isomer, unassigned) [Example 206, 1-(1-(3-fluoro-5-methoxy-phenyl)-ethyl)-3-(6-methyl-5-(1H-pyrazol-4-yl)pyridin-2-yl)-imidazolidin-2-one]
200 to 2000	COc1cccc(C(CC(C)(C)O)N2CCN(c3ccc(-c4cn[nH]c4)c(OC)c3)C2=O)c1 (stereo not drawn) [Example 22, 1-(3-Hydroxy-1-(3-methoxyphenyl)-3-methylbutyl)-3-(3-methoxy-4-(1H-pyrazol-4-yl)phenyl)imidazolidin-2-one]
2.1 to 20	COc1cccc(Cn2ccn(-c3ccc(-c4ccnc5[nH]ccc45)cc3)c2=O)c1 [Example 322, 1-(4-(1H-pyrrolo[2,3-b]pyridin-4-yl)phenyl)-3-(3-methoxybenzyl)-1H-imidazol-2(3H)-one]
20.1 to 200	COc1cc(C(C)n2ccn(-c3ccc(-c4cn[nH]c4)c(OC)n3)c2=O)ccc1F (single isomer, unassigned) [Example 390, 1-(1-(4-fluoro-3-methoxyphenyl)ethyl)-3-(6-methoxy-5-(1H-pyrazol-4-yl)pyridin-2-yl)-1H-imidazol-2(3H)-one]
2.1 to 20	CNCC(c1cccc(OC)c1)N1CCN(c2ccc(-c3cn[nH]c3)cc2)C1=O (single isomer, unassigned) [Example 310, 1-(4-(1H-Pyrazol-4-yl)phenyl)-3-(1-(3-methoxyphenyl)-2-(methylamino)ethyl)imidazolidin-2-one]
20.1 to 200	COc1cc(N2CCN(Cc3ccccc3F)C2=O)ccc1-c1cn[nH]c1 [Example 17, 1-(2-Fluorobenzyl)-3-(3-methoxy-4-(1H-pyrazol-4-yl)phenyl)imidazolidin-2-one]
20.1 to 200	COc1cc(F)cc(C(C)n2ccn(-c3ccc(-c4cn[nH]c4)cn3)c2=O)c1 (single isomer, unassigned) [Example 394, 1-(5-(1H-pyrazol-4-yl)pyridin-2-yl)-3-(1-(3-fluoro-5-methoxyphenyl)ethyl)-1H-imidazol-2(3H)-one]
2.1 to 20	COc1nc(-n2ccn(Cc3cccc(F)c3F)c2=O)ccc1-c1cn[nH]c1 [Example 375, 1-(2,3-difluorobenzyl)-3-(6-methoxy-5-(1H-pyrazol-4-yl)pyridin-2-yl)-1H-imidazol-2(3H)-one]
20.1 to 200	CC(c1ccccc1)n1ccn(-c2ccc(-c3cn[nH]c3)cc2)c1=O (single isomer, unassigned; (-)) [Example 73, (−)-1-(4-(1H-pyrazol-4-yl)phenyl)-3-(1-phenylethyl)-1H-imidazol-2(3H)-one]
20.1 to 200	COc1cccc(C(C)(C(N)=O)N2CCN(c3ccc(-c4cn[nH]c4)cc3)C2=O)c1 (stereo not drawn) [compound 306, 2-(3-(4-(1H-pyrazol-4-yl)phenyl)-2-oxoimidazolidin-1-yl)-2-(3-methoxyphenyl)propanamide]
< 2	CCc1nc(N2CCN(C(C)c3cc(F)cc(OC)c3)C2=O)ccc1-c1cn[nH]c1 (single isomer, unassigned) [Example 268, 1-(6-ethyl-5-(1H-pyrazol-4-yl)pyridin-2-yl)-3-(1-(3-fluoro-5-methoxyphenyl)ethyl)imidazolidin-2-one]

IC50 [nM]	Structure (SMILES)
200 to 2000	CCc1cc(N2CCN(Cc3ccc(F)c(OC)c3)C2=O)ncc1-c1cn[nH]c1 [Example 194, 1-(4-ethyl-5-(1H-pyrazol-4-yl)pyridin-2-yl)-3-(4-fluoro-3-methoxy-benzyl) imidazolidin-2-one]
20.1 to 200	COc1cc(F)cc(CN2CC(=O)N(c3ccc(-c4cn[nH]c4)cc3)C2=O)c1 [Example 84, 3-(4-(1H-pyrazol-4-yl)phenyl)-1-(3-fluoro-5-methoxybenzyl)imidazolidine-2,4-dione]
2.1 to 20	CCOc1cccc(C(C)N2CCN(c3ccc(-c4cn[nH]c4)c(CC)n3)C2=O)c1 (single isomer, unassigned) [Example 266, 1-(1-(3-ethoxyphenyl)ethyl)-3-(6-ethyl-5-(1H-pyrazol-4-yl)pyridin-2-yl)imidazolidin-2-one]
2.1 to 20	COc1cc(F)cc(C(C)n2ccn(-c3ccc(-c4cn[nH]c4)c(OC)n3)c2=O)c1 (single isomer, unassigned) [Example 398, 1-(1-(3-fluoro-5-methoxyphenyl)ethyl)-3-(6-methoxy-5-(1H-pyrazol-4-yl)pyridin-2-yl)-1H-imidazol-2(3H)-one]
20.1 to 200	COc1cccc(C(CO)N2CCN(c3ccc(-c4cn[nH]c4)cc3)C2=O)c1 (single isomer, unassigned) [Example 154, 1-(4-(1H-Pyrazol-4-yl)phenyl)-3-(2-hydroxy-1-(3-methoxyphenyl)ethyl)imidazolidin-2-one]
2.1 to 20	CCc1cc(N2CCN([C@H](C)c3cccc(OC)c3)C2=O)ccc1-c1cn[nH]c1 [Example 272, (R)-1-(3-ethyl-4-(1H-pyrazol-4-yl)phenyl)-3-(1-(3-methoxyphenyl)ethyl)imidazolidin-2-one]
20.1 to 200	COc1cccc(C(C)n2ccn(-c3ccc(-c4cn[nH]c4)cc3)c2=O)c1 (single isomer, unassigned) [Example 340, 1-(4-(1H-pyrazol-4-yl)phenyl)-3-(l-(3-methoxyphenyl)ethyl)-1H-imidazol-2(3H)-one]
< 2	COc1nc(-n2ccn(Cc3cccc(OCC4CC4)c3)c2=O)ccc1-c1cn[nH]c1 [Example 378, 1-(3-(cyclopropylmethoxy)benzyl)-3-(6-methoxy-5-(1H-pyrazol-4-yl)pyridin-2-yl)-1H-imidazol-2(3H)-one]
< 2	CCc1nc(-n2ccn(C(C)c3cccc(OC)c3)c2=O)ccc1-c1cn[nH]c1 (single isomer, unassigned) [Example 183, 1-(6-ethyl-5-(1H-pyrazol-4-yl)pyridin-2-yl)-3-(1-(3-methoxy-phenyl)-ethyl)-1H-imidazol-2(3H)-one]
20.1 to 200	COc1cccc(C(C)(CO)N2CCN(c3ccc(-c4cn[nH]c4)cc3)C2=O)c1 (single isomer, unassigned) [Example 287, 1-(4-(1H-Pyrazol-4-yl)phenyl)-3-(1-hydroxy-2-(3-methoxyphenyl)propan-2-yl)imidazolidin-2-one]
< 2	COc1cccc(C(C)N2CCN(c3ccc(-c4cn[nH]c4)c(OC)n3)C2=O)c1 (single isomer, unassigned) [Example 219, 1-(6-methoxy-5-(1H-pyrazol-4-yl)pyridin-2-yl)-3-(1-(3-methoxyphenyl)ethyl)imidazolidin-2-one]
200 to 2000	O=C1N(Cc2ccccc2F)CCN1c1ccc(-c2ccncc2)cc1 [Example 57, 1-(2-fluorobenzyl)-3-(4-(pyridin-4-yl)phenyl)imidazolidin-2-one, TFA]
20.1 to 200	COc1cccc(C(C(N)=O)N2CCN(c3ccc(-c4cn[nH]c4)cc3)C2=O)c1 (single isomer, unassigned) [Example 295, 2-(3-(4-(1H-pyrazol-4-yl)phenyl)-2-oxoimidazolidin-1-yl)-2-(3-methoxyphenyl)acetamide]
20.1 to 200	COc1cc(N2CCN(Cc3ccccc3)C2=O)ccc1-c1cn[nH]c1 [Example 18, 1-Benzyl-3-(3-methoxy-4-(1H-pyrazol-4-yl)phenyl)imidazolidin-2-one]
< 2	COc1cc(F)cc(C(C)n2ccn(-c3ccc(-c4cn[nH]c4)c(OC)n3)c2=O)c1 (single isomer, unassigned) [Example 397, 1-(1-(3-fluoro-5-methoxyphenyl)ethyl)-3-(6-methoxy-5-(1H-pyrazol-4-yl)pyridin-2-yl)-1H-imidazol-2(3H)-one]
20.1 to 200	O=c1n(Cc2cccc(OCC3CC3)c2)ccn1-c1ccc(-c2cn[nH]c2)cn1 [Example 347, 1-(5-(1H-pyrazol-4-yl)pyridin-2-yl)-3-(3-(cyclopropylmethoxy)benzyl)-1H-imidazol-2(3H)-one]
< 2	COc1cccc(C(CO)N2CCN(c3ccc(-c4cn[nH]c4)cn3)C2=O)c1 (single isomer, unassigned) [Example 461, 1-(5-(1H-pyrazol-4-yl)pyridin-2-yl)-3-(2-hydroxy-1-(3-methoxyphenyl)ethyl)imidazolidin-2-one]
2.1 to 20	COc1nc(N2CCN(Cc3cccnc3)C2=O)ccc1-c1cn[nH]c1 [Example 253]
